{"source": "paper PMC4576851", "about": "(Organic & biomolecular chemistry, 2015)", "biological_target": "p97 (valosin containing protein, VCP, cdc48) (Homo sapiens, UniProt P55072)", "sequence (P55072 2-806)": "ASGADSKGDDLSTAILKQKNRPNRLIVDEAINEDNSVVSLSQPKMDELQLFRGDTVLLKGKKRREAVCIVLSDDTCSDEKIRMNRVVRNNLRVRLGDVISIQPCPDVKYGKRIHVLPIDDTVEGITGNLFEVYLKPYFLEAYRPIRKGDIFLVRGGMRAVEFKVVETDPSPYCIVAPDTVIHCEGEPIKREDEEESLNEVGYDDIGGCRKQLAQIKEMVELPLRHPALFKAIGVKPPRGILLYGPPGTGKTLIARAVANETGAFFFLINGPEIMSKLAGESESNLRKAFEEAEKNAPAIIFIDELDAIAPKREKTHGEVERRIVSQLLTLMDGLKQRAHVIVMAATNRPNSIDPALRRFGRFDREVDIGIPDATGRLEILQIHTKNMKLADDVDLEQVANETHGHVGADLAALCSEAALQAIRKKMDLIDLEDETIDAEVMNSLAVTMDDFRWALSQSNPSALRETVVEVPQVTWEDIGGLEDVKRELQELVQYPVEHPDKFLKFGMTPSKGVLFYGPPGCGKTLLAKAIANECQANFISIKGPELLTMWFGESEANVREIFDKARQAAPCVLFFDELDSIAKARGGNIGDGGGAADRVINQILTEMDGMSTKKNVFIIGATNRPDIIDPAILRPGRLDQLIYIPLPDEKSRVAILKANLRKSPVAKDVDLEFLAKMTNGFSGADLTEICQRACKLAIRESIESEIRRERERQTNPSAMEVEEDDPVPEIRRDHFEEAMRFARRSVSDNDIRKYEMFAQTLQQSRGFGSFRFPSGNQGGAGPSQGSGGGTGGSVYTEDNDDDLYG", "assay": "p97 ATPase inhibition assay", "format": "biochemical", "data": [{"smiles": "C=C1OC(=O)C2(C1=O)[C@H](/C=C/C=C/CCC)C=C[C@@H](O)[C@@H]2O", "note": "(stereo partly shown) [compound 2, oxaspirol B]", "values": [{"measurement": "IC50", "result": "31.2 ± 3", "unit": "µM"}]}]}
